Assay results reported in the NIST ThermoML archive (doi:10.1016/j.jct.2016.05.007).
Where “and” joins values, the source holds several entries; their conditions need not be identical. Equal entries are not always repeated. Numbers after ± are expanded uncertainties.

Experiments:
[1] = for Triple point temperature: DSC
[2] = molar enthalpy of vaporization or sublimation; details: 298.15 K; Crystal 2; Static calorimetry
[3] = Molar enthalpy of transition or fusion; details: DSC

CC(C)(C)c1ccc2c(c1)Cc1cc(C(C)(C)C)ccc1-2 [2,7-di-tert-butylfluorene]
vapor or sublimation pressure ([1]; 349.14 K, Crystal 2, Calculated from knudsen effusion weight loss): 0.000106 ± 2e-05 kPa and 0.000105 ± 2e-05 kPa | vapor or sublimation pressure ([1]; 351.14 K, Crystal 2, Calculated from knudsen effusion weight loss): 0.000136 ± 2.1e-05 kPa and 0.000135 ± 2.1e-05 kPa and 0.000132 ± 2.1e-05 kPa | vapor or sublimation pressure ([1]; 353.3 K, Crystal 2, Calculated from knudsen effusion weight loss): 0.000169 ± 2.1e-05 kPa and 0.000171 ± 2.1e-05 kPa | vapor or sublimation pressure ([1]; 355.28 K, Crystal 2, Calculated from knudsen effusion weight loss): 0.000213 ± 2.1e-05 kPa and 0.000215 ± 2.1e-05 kPa and 0.000217 ± 2.1e-05 kPa | vapor or sublimation pressure ([1]; 357.2 K, Crystal 2, Calculated from knudsen effusion weight loss): 0.000271 ± 2.2e-05 kPa and 0.000267 ± 2.2e-05 kPa and 0.000261 ± 2.2e-05 kPa | vapor or sublimation pressure ([1]; 359.19 K, Crystal 2, Calculated from knudsen effusion weight loss): 0.000321 ± 2.3e-05 kPa and 0.000336 ± 2.3e-05 kPa and 0.00033 ± 2.3e-05 kPa | vapor or sublimation pressure ([1]; 361.14 K, Crystal 2, Calculated from knudsen effusion weight loss): 0.000408 ± 2.5e-05 kPa and 0.000409 ± 2.5e-05 kPa | vapor or sublimation pressure ([1]; 363.27 K, Crystal 2, Calculated from knudsen effusion weight loss): 0.000509 ± 2.7e-05 kPa and 0.000507 ± 2.7e-05 kPa and 0.000514 ± 2.7e-05 kPa | vapor or sublimation pressure ([1]; 368.2 K, Crystal 1, Calculated from knudsen effusion weight loss): 0.000805 ± 3.5e-05 kPa and 0.000816 ± 3.5e-05 kPa and 0.000828 ± 3.5e-05 kPa | vapor or sublimation pressure ([1]; 368.55 K, Crystal 1, Closed cell (Static) method): 0.000873 ± 2.4e-05 kPa | vapor or sublimation pressure ([1]; 369.13 K, Crystal 1, Calculated from knudsen effusion weight loss): 0.000886 ± 3.7e-05 kPa and 0.000888 ± 3.7e-05 kPa and 0.000889 ± 3.7e-05 kPa | vapor or sublimation pressure ([1]; 370.26 K, Crystal 1, Calculated from knudsen effusion weight loss): 0.000975 ± 4e-05 kPa and 0.000979 ± 4e-05 kPa | vapor or sublimation pressure ([1]; 370.54 K, Crystal 1, Closed cell (Static) method): 0.001055 ± 2.5e-05 kPa | vapor or sublimation pressure ([1]; 371.21 K, Crystal 1, Calculated from knudsen effusion weight loss): 0.001079 ± 8.5e-05 kPa and 0.001082 ± 8.5e-05 kPa and 0.00107 ± 8.4e-05 kPa | vapor or sublimation pressure ([1]; 372.21 K, Crystal 1, Calculated from knudsen effusion weight loss): 0.00118 ± 9.5e-05 kPa and 0.001178 ± 9.5e-05 kPa | vapor or sublimation pressure ([1]; 372.5 K, Crystal 1, Closed cell (Static) method): 0.001246 ± 2.6e-05 kPa | vapor or sublimation pressure ([1]; 374.5 K, Crystal 1, Closed cell (Static) method): 0.001492 ± 2.7e-05 kPa | vapor or sublimation pressure ([1]; 376.45 K, Crystal 1, Closed cell (Static) method): 0.001778 ± 2.9e-05 kPa | vapor or sublimation pressure ([1]; 378.41 K, Crystal 1, Closed cell (Static) method): 0.002106 ± 3.1e-05 kPa | vapor or sublimation pressure ([1]; 380.4 K, Crystal 1, Closed cell (Static) method): 0.002524 ± 3.3e-05 kPa | vapor or sublimation pressure ([1]; 382.38 K, Crystal 1, Closed cell (Static) method): 0.002965 ± 3.5e-05 kPa | vapor or sublimation pressure ([1]; 384.34 K, Closed cell (Static) method, Liquid): 0.003946 ± 4e-05 kPa | vapor or sublimation pressure ([1]; 384.34 K, Crystal 1, Closed cell (Static) method): 0.003492 ± 3.7e-05 kPa | vapor or sublimation pressure ([1]; 386.3 K, Crystal 1, Closed cell (Static) method): 0.004126 ± 4.1e-05 kPa | vapor or sublimation pressure ([1]; 386.32 K, Closed cell (Static) method, Liquid): 0.004548 ± 4.3e-05 kPa | vapor or sublimation pressure ([1]; 388.27 K, Crystal 1, Closed cell (Static) method): 0.004862 ± 4.4e-05 kPa | vapor or sublimation pressure ([1]; 388.28 K, Closed cell (Static) method, Liquid): 0.005217 ± 4.6e-05 kPa | vapor or sublimation pressure ([1]; 390.24 K, Crystal 1, Closed cell (Static) method): 0.00567 ± 4.8e-05 kPa | vapor or sublimation pressure ([1]; 390.28 K, Closed cell (Static) method, Liquid): 0.005976 ± 5e-05 kPa | vapor or sublimation pressure ([1]; 392.22 K, Closed cell (Static) method, Liquid): 0.006859 ± 5.4e-05 kPa | vapor or sublimation pressure ([1]; 394.2 K, Closed cell (Static) method, Liquid): 0.007843 ± 5.9e-05 kPa | vapor or sublimation pressure ([1]; 396.17 K, Closed cell (Static) method, Liquid): 0.008987 ± 6.5e-05 kPa | vapor or sublimation pressure ([1]; 398.15 K, Closed cell (Static) method, Liquid): 0.01026 ± 7.1e-05 kPa | vapor or sublimation pressure ([1]; 400.05 K, Closed cell (Static) method, Liquid): 0.01164 ± 7.8e-05 kPa | vapor or sublimation pressure ([1]; 402.07 K, Closed cell (Static) method, Liquid): 0.01327 ± 8.6e-05 kPa | vapor or sublimation pressure ([1]; 404.04 K, Closed cell (Static) method, Liquid): 0.01508 ± 9.5e-05 kPa | Triple point temperature ([1]; Crystal 1): 395.9 ± 0.8 K | Triple point temperature ([1]; Crystal 2): 367 ± 0.8 K | molar enthalpy [2]: 28.66 ± 0.239 kcal/mol | Molar enthalpy of transition or fusion ([3]; Crystal 1): 3.73 ± 0.0956 kcal/mol | Molar enthalpy of transition or fusion ([3]; Crystal 2): 2.39 ± 0.0645 kcal/mol
